Data reported in patent US20210330611A1, “THERAPY FOR NEUROLOGICAL DISEASES/DISORDERS” (priority 2020, published 2021).
Where “and” joins values, the source holds several entries; their conditions need not be identical. Identical values can stand only once. Counter-ions that a name gives are not always drawn. Like-named read-outs stand apart in the source and are kept apart here.

What was measured:
[1] = system: LPS-induced microglia activation; experiment: Image-based assay of LPS-induced microglia activation (HTS and dose response); assay type: cell-based, rat; settings: for inhibition at 10 µM: Rattus norvegicus, Microglia, read-out: LPS % inhibition
[2] = system: fibrin- and LPS-induced microglia activation; experiment: cells; assay type: cell-based, rat
primary rat microglia [3] = experiment: Cell toxicity (dead cells, size <150 μm2) in LPS assay
primary rat microglia [4] = experiment: Cell toxicity (dead cells, size <150 μm2) in coated fibrin (cFib) assay;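 for Fibrin % cell toxicity: share of dead cells sized under 150 µm2 at 10 µM in fibrin-stimulated microglia HTS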
[5] = system: fibrin-induced microglia activation; experiment: Image-based assay of fibrin-induced microglia activation (HTS and dose response); assay type: cell-based, rat; settings: Rattus norvegicus, Microglia, primary microglia HTS, fibrin stimulation; increased cell size (>800 μm^2) as marker of activation; read-out: Fibrin % inhibition
[6] = quadrant by fibrin and LPS inhibition in HTS of 1907 compounds
[7] = primary microglia HTS, LPS stimulation, decreased size (<150 μm^2) as marker of toxicity
[8] = primary microglia HTS, fibrin stimulation, decreased size (<150 μm^2) as marker of toxicity
[9] = 48 h, primary microglia HTS, LPS stimulation, activation = cell size >800 μm2
[10] = primary microglia HTS, LPS stimulation, toxicity = cell size <150 μm2
[11] = primary microglia HTS, fibrin stimulation, toxicity = cell size <150 μm2
[12] = HTS of 1907 compounds, quadrant by fibrin and LPS inhibition
[13] = primary HTS, 10 μM, LPS-stimulated primary microglia

| Compound | Quadrant (FIG. 5b) [2, 6] | LPS % cell toxicity (primary rat microglia [3]; [7]) | Fibrin % cell toxicity (primary rat microglia [4]; [8]) | also measured |
| --- | --- | --- | --- | --- |
| Benzalkonium Chloride | Q2 | 31% | 71% | LPS % inhibition ([1]; primary microglia HTS, LPS stimulation, increased cell size (>800 μm^2) as marker of activation): 122% |
| Nc1nc2ncc(CNc3ccc(C(=O)N[C@@H](CCC(=O)O)C(=O)O)cc3)nc2c(=O)[nH]1 [Folic Acid] | Q4 |  |  | inhibition at 10 µM [1, 9]: 22%; LPS % cell toxicity (primary rat microglia [3]; [10]): 0% and 1%; Fibrin % cell toxicity (primary rat microglia [4]; [11]): 1% |
| CNC[C@H](O)[C@@H](O)[C@H](O)[C@H](O)CO [Meglumine] | Q4 | 0% and 1% | 0% and 1% |  |
| C[C@H](N)[C@H](O)c1cccc(O)c1 [Metaraminol] | Q4 | 1% | 0% and 1% |  |
| CC(Oc1c(Cl)cccc1Cl)C1=NCCN1 (stereo not drawn) [Lofexidine] | Q4 |  |  | LPS % cell toxicity (primary rat microglia [3]; [10]): 0%; Fibrin % cell toxicity (primary rat microglia [4]; [11]): 0% and 1% |
| CCC(Cc1c(I)cc(I)c(N)c1I)C(=O)O (stereo not drawn) [lopanic Acid] |  |  |  | IC50 ([1]; LPS-induced microglia activation, dose response, read-out: LPS IC50 (uM) (Suppl. Table 7)): > 20 µM; Quadrant (FIG. 5b) [2, 12]: Q3; Cherry-picked Hit (Suppl. Table 7) ([2]; hit classification in microglia HTS): HIT (Hits were defined as molecules that exhibited greater than 50% inhibition of either fibrin or LPS activation); IC50 (primary rat microglia [3]; read-out: Cell Toxicity IC50 (uM) [LPS assay], LPS assay): > 20 µM; IC50 (primary rat microglia [4]; read-out: Cell Toxicity IC50 (uM) [cFib assay], cFib assay): > 20 µM |
| C[C@]1(Cn2ccnn2)[C@H](C(=O)O)N2C(=O)C[C@H]2S1(=O)=O [Tazobactam] |  |  |  | Quadrant (FIG. 5b) [2, 12]: Q4; LPS % cell toxicity (primary rat microglia [3]; primary microglia HTS, 10 μM, LPS assay, cell size <150 μm^2 as marker of toxicity): 0%; Fibrin % cell toxicity (primary rat microglia [4]; primary microglia HTS, 10 μM, fibrin assay, cell size <150 μm^2 as marker of toxicity): 1% and 0% |
| NCC1(CC(=O)O)CCCCC1 [Gabapentin] | Q4 |  |  | inhibition at 10 µM [1, 9]: 19%; LPS % cell toxicity (primary rat microglia [3]; [10]): 1% and 0%; Fibrin % cell toxicity (primary rat microglia [4]; [11]): 1% |
| CCCC1O[C@@H]2C[C@H]3[C@@H]4CCC5=CC(=O)C=C[C@]5(C)[C@H]4[C@@H](O)C[C@]3(C)[C@]2(C(=O)CO)O1 (stereo partly drawn) [Budesonide] | Q2 | 5% and 1% | 3% and 6% | inhibition at 10 µM [5]: 110% |
| CC(=O)/N=c1/sc(S(N)(=O)=O)nn1C [Methazolamide] | Q4 | 0% | 1% | inhibition at 10 µM ([1]; 48 h, primary microglia HTS, LPS stimulation, increased cell size (>800 μm^2) as marker of activation): 10% |
| C[C@@H](O)[C@H]1C(=O)N2C(C(=O)O)=C(S[C@@H]3CN[C@H](C(=O)N(C)C)C3)[C@H](C)[C@H]12 [Meropenem] | Q4 | 0% | 1% |  |
| CC[C@@H](CO)NC(=O)[C@@H]1C=C2c3cccc4c3c(cn4C)C[C@H]2N(C)C1 [Methysergide Maleate] | Q4 | 0% | 0% and 1% |  |
| CN(C)CCCC1(c2ccc(F)cc2)OCc2cc(C#N)ccc21 (stereo not drawn) [Citalopram] |  |  |  | inhibition at 10 µM [1, 13]: 10%; LPS % inhibition [1, 13]: 8%; Quadrant (FIG. 5b) ([2]; primary HTS, 10 μM): Q4; LPS % cell toxicity (primary rat microglia [3]; primary HTS, 10 μM, LPS assay, dead cells size <150 μm2): 0%; Fibrin % cell toxicity (primary rat microglia [4]; primary HTS, 10 μM, fibrin assay, dead cells size <150 μm2): 0% |
| CC(C)(C)NC(=O)[C@H]1CC[C@H]2[C@@H]3CC[C@H]4NC(=O)C=C[C@]4(C)[C@H]3CC[C@]12C [Finasteride] | Q4 |  |  | LPS % cell toxicity (primary rat microglia [3]; [10]): 1% and 0%; Fibrin % cell toxicity (primary rat microglia [4]; [11]): 1% and 0% |
| CN1Cc2c(N)cccc2C(c2ccccc2)C1 (stereo not drawn) [Nomifensine] | Q4 | 0% | 0% |  |
| CC(C)[C@H]1CC[C@H](C(=O)N[C@H](Cc2ccccc2)C(=O)O)CC1 [Nateglinide] | Q4 | 1% and 0% | 1% |  |
